Columns and labels:
[1] = biological target: GDP-bound KRAS wild-type protein (Homo sapiens, UniProt P01116); assay: Binding to KRAS by surface plasmon resonance (SPR), Single Cycle Kinetics; details: SPR, Single Cycle Kinetics, GDP-bound KRAS wild-type protein; read-out: KRAS KD
[2] = biological target: GDP-bound NRAS wild-type protein (Homo sapiens, UniProt P01111); assay: Binding to NRAS by surface plasmon resonance (SPR), Single Cycle Kinetics; details: ratio of KD for GDP-bound NRAS wild-type protein to KD for KRAS, SPR
Sequence of GDP-bound NRAS wild-type protein (P01111 whole entry): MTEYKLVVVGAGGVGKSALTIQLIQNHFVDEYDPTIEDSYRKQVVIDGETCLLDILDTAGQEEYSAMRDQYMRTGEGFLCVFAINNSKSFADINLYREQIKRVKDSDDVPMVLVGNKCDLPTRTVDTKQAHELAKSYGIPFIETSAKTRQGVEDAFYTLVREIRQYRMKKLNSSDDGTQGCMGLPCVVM

[3] = biological target: GDP-bound HRAS wild-type protein (Homo sapiens, UniProt P01112); assay: Binding to HRAS by surface plasmon resonance (SPR), Single Cycle Kinetics; details: ratio of KD for GDP-bound HRAS wild-type protein to KD for KRAS, SPR
Sequence of GDP-bound HRAS wild-type protein (P01112 whole entry): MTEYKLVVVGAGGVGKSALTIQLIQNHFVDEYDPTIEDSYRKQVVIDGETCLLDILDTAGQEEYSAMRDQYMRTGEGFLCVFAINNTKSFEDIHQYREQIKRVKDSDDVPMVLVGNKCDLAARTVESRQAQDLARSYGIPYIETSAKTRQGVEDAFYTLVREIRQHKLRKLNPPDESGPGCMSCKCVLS

[4] = test system: human lung cancer strain NCI-H441; assay: cells; details: NCI-H441, 96 h, read-out: NCI-H441 IC50 (nM), NCI-H441 cell proliferation, 4 days, CellTiter-Glo;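 further: cell proliferation inhibition after four days measured by CellTiter-Glo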

Sequence of GDP-bound KRAS wild-type protein (P01116 whole entry): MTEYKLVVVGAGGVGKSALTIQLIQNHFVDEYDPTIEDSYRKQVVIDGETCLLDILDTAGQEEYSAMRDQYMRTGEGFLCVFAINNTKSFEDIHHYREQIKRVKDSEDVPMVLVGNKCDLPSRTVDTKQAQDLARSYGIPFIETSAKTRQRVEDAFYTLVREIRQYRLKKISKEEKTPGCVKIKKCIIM

Structure (SMILES)	Kd [1]	NRAS/KRAS (KD ratio) [2]	HRAS/KRAS (KD ratio) [3]	IC50 [4]
C#CC[C@H]1C(=O)N[C@@H]([C@@H](C)CC)C(=O)N(C)CC(=O)N(C)[C@H]2C/C=C\CCN(C2=O)[C@@H](Cc2ccc(C(F)(F)F)cc2)C(=O)N(C)CC(=O)N[C@@H](CCc2cc(F)c(C(F)(F)F)c(F)c2)C(=O)N2C[C@H](F)C[C@H]2C(=O)NC2(CC(C)(C)C2)C(=O)N(C)[C@@H](C2CCCC2)C(=O)N(C)[C@H](C(=O)N(C)CCC)CC(=O)N1C [PP1692]	0.11 nM	AA (a compound having 20 or more is denoted as AA)	A (a compound having 10 or more and less than 20 is denoted as A)	4.3 nM
CC[C@H](C)[C@@H]1NC(=O)[C@H](CC(C)C)N(C)C(=O)C[C@@H](C(=O)N(C)CC)N(C)C(=O)[C@H](C2CCCC2)N(C)C(=O)C2(CC(C)(C)C2)NC(=O)[C@@H]2C[C@@H](F)CN2C(=O)[C@H](CCc2cc(F)c(C(F)(F)F)c(F)c2)NC(=O)CN(C)C(=O)[C@H](Cc2ccc(C(F)(F)F)cc2)N2CC/C=C\C[C@@H](C2=O)N(C)C(=O)CN(C)C1=O [PP1694]	0.051 nM	A (a compound having 10 or more and less than 20 is denoted as A)	A (a compound having 10 or more and less than 20 is denoted as A)	4.1 nM
CCCN(C)C(=O)[C@@H]1CC(=O)N(C)[C@@H](COC)C(=O)N[C@@H]([C@@H](C)CC)C(=O)N(C)CC(=O)N(C)[C@H]2C/C=C\CCN(C2=O)[C@@H](Cc2ccc(C(F)(F)F)cc2)C(=O)N(C)CC(=O)N[C@@H](CCc2cc(F)c(C(F)(F)F)c(F)c2)C(=O)N2C[C@H](F)C[C@H]2C(=O)NC2(CC(C)(C)C2)C(=O)N(C)[C@@H](C2CCCC2)C(=O)N1C [PP1696]	0.041 nM	AA (a compound having 20 or more is denoted as AA)	A (a compound having 10 or more and less than 20 is denoted as A)	2.9 nM
CCCOC[C@H]1C(=O)N[C@@H]([C@@H](C)CC)C(=O)N(C)CC(=O)N(C)[C@H]2C/C=C\CCN(C2=O)[C@@H](Cc2ccc(C(F)(F)F)cc2)C(=O)N(C)CC(=O)N[C@@H](CCc2cc(F)c(C(F)(F)F)c(F)c2)C(=O)N2C[C@H](F)C[C@H]2C(=O)NC2(CC(C)(C)C2)C(=O)N(C)[C@@H](C2CCCC2)C(=O)N(C)[C@H](C(=O)N(C)CC)CC(=O)N1C [PP1697]	0.047 nM	A (a compound having 10 or more and less than 20 is denoted as A)	A (a compound having 10 or more and less than 20 is denoted as A)	3.6 nM
CCCOC[C@H]1C(=O)N[C@@H]([C@@H](C)CC)C(=O)N(C)CC(=O)N(C)[C@H]2C/C=C\CCN(C2=O)[C@@H](Cc2ccc(C(F)(F)F)cc2)C(=O)N(C)CC(=O)N[C@@H](CCc2cc(F)c(C(F)(F)F)c(F)c2)C(=O)N2C[C@H](F)C[C@H]2C(=O)NC2(CC(C)(C)C2)C(=O)N(C)[C@@H](C2CCCC2)C(=O)N(C)[C@H](C(=O)N(C)CCC)CC(=O)N1C [PP1698]	0.075 nM	A (a compound having 10 or more and less than 20 is denoted as A)	A (a compound having 10 or more and less than 20 is denoted as A)	5.1 nM
CCCN(C)C(=O)[C@@H]1CC(=O)N(C)[C@@H](CC)C(=O)N[C@@H]([C@@H](C)CC)C(=O)N(C)CC(=O)N(C)[C@H]2C/C=C\CCN(C2=O)[C@@H](Cc2ccc(C(F)(F)F)cc2)C(=O)N(C)CC(=O)N[C@@H](CCc2cc(F)c(C(F)(F)F)c(F)c2)C(=O)N2C[C@H](OCC)C[C@H]2C(=O)NC2(CCC2)C(=O)N(C)[C@@H](C2CCCC2)C(=O)N1C [PP1699]	0.095 nM	A (a compound having 10 or more and less than 20 is denoted as A)	A (a compound having 10 or more and less than 20 is denoted as A)	2.5 nM
CCCN(C)C(=O)[C@@H]1CC(=O)N(C)[C@@H](CC(F)F)C(=O)N[C@@H]([C@@H](C)CC)C(=O)N(C)CC(=O)N(C)[C@H]2C/C=C\CCN(C2=O)[C@@H](Cc2ccc(C(F)(F)F)cc2)C(=O)N(C)CC(=O)N[C@@H](CCc2cc(F)c(C(F)(F)F)c(F)c2)C(=O)N2C[C@H](OCC)C[C@H]2C(=O)NC2(CCC2)C(=O)N(C)[C@@H](C2CCCC2)C(=O)N1C [PP1700]	0.11 nM	A (a compound having 10 or more and less than 20 is denoted as A)	A (a compound having 10 or more and less than 20 is denoted as A)	3.6 nM
CCCN(C)C(=O)[C@@H]1CC(=O)N(C)[C@@H](CC(F)(F)F)C(=O)N[C@@H]([C@@H](C)CC)C(=O)N(C)CC(=O)N(C)[C@H]2C/C=C\CCN(C2=O)[C@@H](Cc2ccc(C(F)(F)F)cc2)C(=O)N(C)CC(=O)N[C@@H](CCc2cc(F)c(C(F)(F)F)c(F)c2)C(=O)N2C[C@H](OCC)C[C@H]2C(=O)NC2(CCC2)C(=O)N(C)[C@@H](C2CCCC2)C(=O)N1C [PP1702]	0.085 nM	A (a compound having 10 or more and less than 20 is denoted as A)	A (a compound having 10 or more and less than 20 is denoted as A)	4.9 nM
C#CC[C@H]1C(=O)N[C@@H]([C@@H](C)CC)C(=O)N(C)CC(=O)N(C)[C@H]2C/C=C\CCN(C2=O)[C@@H](Cc2ccc(C(F)(F)F)cc2)C(=O)N(C)CC(=O)N[C@@H](CCc2cc(F)c(C(F)(F)F)c(F)c2)C(=O)N2C[C@H](OCC)C[C@H]2C(=O)NC2(CCC2)C(=O)N(C)[C@@H](C2CCCC2)C(=O)N(C)[C@H](C(=O)N(C)CCC)CC(=O)N1C [PP1703]	0.13 nM	A (a compound having 10 or more and less than 20 is denoted as A)	A (a compound having 10 or more and less than 20 is denoted as A)	7.2 nM
CCCC[C@H]1C(=O)N[C@@H]([C@@H](C)CC)C(=O)N(C)CC(=O)N(C)[C@H]2C/C=C\CCN(C2=O)[C@@H](Cc2ccc(C(F)(F)F)cc2)C(=O)N(C)CC(=O)N[C@@H](CCc2cc(F)c(C(F)(F)F)c(F)c2)C(=O)N2C[C@H](OCC)C[C@H]2C(=O)NC2(CCC2)C(=O)N(C)[C@@H](C2CCCC2)C(=O)N(C)[C@H](C(=O)N(C)CCC)CC(=O)N1C [PP1704]	0.14 nM	A (a compound having 10 or more and less than 20 is denoted as A)	A (a compound having 10 or more and less than 20 is denoted as A)	10.3 nM
CCCN(C)C(=O)[C@@H]1CC(=O)N(C)[C@@H](CC2CCC2)C(=O)N[C@@H]([C@@H](C)CC)C(=O)N(C)CC(=O)N(C)[C@H]2C/C=C\CCN(C2=O)[C@@H](Cc2ccc(C(F)(F)F)cc2)C(=O)N(C)CC(=O)N[C@@H](CCc2cc(F)c(C(F)(F)F)c(F)c2)C(=O)N2C[C@H](OCC)C[C@H]2C(=O)NC2(CCC2)C(=O)N(C)[C@@H](C2CCCC2)C(=O)N1C [PP1705]	0.14 nM	AA (a compound having 20 or more is denoted as AA)	A (a compound having 10 or more and less than 20 is denoted as A)	8 nM
CCCN(C)C(=O)[C@@H]1CC(=O)N(C)[C@@H](COC)C(=O)N[C@@H]([C@@H](C)CC)C(=O)N(C)CC(=O)N(C)[C@H]2C/C=C\CCN(C2=O)[C@@H](Cc2ccc(C(F)(F)F)cc2)C(=O)N(C)CC(=O)N[C@@H](CCc2cc(F)c(C(F)(F)F)c(F)c2)C(=O)N2C[C@H](OCC)C[C@H]2C(=O)NC2(CCC2)C(=O)N(C)[C@@H](C2CCCC2)C(=O)N1C [PP1706]	0.075 nM	A (a compound having 10 or more and less than 20 is denoted as A)	A (a compound having 10 or more and less than 20 is denoted as A)	6.7 nM
CC[C@H](C)[C@@H]1NC(=O)[C@H](C)N(C)C(=O)C[C@@H](C(=O)N(C)C)N(C)C(=O)[C@H](C2CCCC2)N(C)C(=O)C2(CC(C)(C)C2)NC(=O)[C@@H]2CC(F)(F)CN2C(=O)[C@H](CCc2cc(F)c(C(F)(F)F)c(F)c2)NC(=O)CN(C)C(=O)[C@H](Cc2ccc(C(F)(F)F)cc2)N2CC/C=C\C[C@@H](C2=O)N(C)C(=O)CN(C)C1=O [PP1707]	0.037 nM	AA (a compound having 20 or more is denoted as AA)	A (a compound having 10 or more and less than 20 is denoted as A)	7.4 nM
CC[C@H](C)[C@@H]1NC(=O)[C@H](CC(F)F)N(C)C(=O)C[C@@H](C(=O)N(C)C)N(C)C(=O)[C@H](C2CCCC2)N(C)C(=O)C2(CC(C)(C)C2)NC(=O)[C@@H]2CC(F)(F)CN2C(=O)[C@H](CCc2cc(F)c(C(F)(F)F)c(F)c2)NC(=O)CN(C)C(=O)[C@H](Cc2ccc(C(F)(F)F)cc2)N2CC/C=C\C[C@@H](C2=O)N(C)C(=O)CN(C)C1=O [PP1709]	0.058 nM	A (a compound having 10 or more and less than 20 is denoted as A)	A (a compound having 10 or more and less than 20 is denoted as A)	3.8 nM
CC[C@H](C)[C@@H]1NC(=O)[C@H](CC(F)(F)F)N(C)C(=O)C[C@@H](C(=O)N(C)C)N(C)C(=O)[C@H](C2CCCC2)N(C)C(=O)C2(CC(C)(C)C2)NC(=O)[C@@H]2CC(F)(F)CN2C(=O)[C@H](CCc2cc(F)c(C(F)(F)F)c(F)c2)NC(=O)CN(C)C(=O)[C@H](Cc2ccc(C(F)(F)F)cc2)N2CC/C=C\C[C@@H](C2=O)N(C)C(=O)CN(C)C1=O [PP1710]	0.1 nM	A (a compound having 10 or more and less than 20 is denoted as A)	B (a compound having 3 or more and less than 10 is denoted as B)	4.1 nM

Reference: US20240158446A1, “CYCLIC COMPOUND HAVING SELECTIVE INHIBITORY ACTION ON KRAS OVER HRAS AND NRAS” (CHUGAI SEIYAKU KABUSHIKI KAISHA, priority 2021, published 2024)
